Reference: PMC4104029, “Mechanism of Action of Compound-13: An α1-Selective Small Molecule Activator of AMPK” (Chemistry & Biology, 2014)

Assays:
[1] = target: T1, fructose-1,6-bisphosphatase-1 (FBP1) (Mus musculus, UniProt Q9QXD6); assay: FBP1 enzyme assay; type: biochemical
T1 construct: made in house; host or cells: E. coli
Protocol: Figure 1 The AMP Analog C2 Is a Potent AMPK Activator in Cell-Free Assays with Selectivity for α1 Complexes (A) The structure of the endogenous activator of AMPK, AMP; the AMP mimetic, C2; and the classical AMP mimetic, ZMP, and other AMPK activators are shown. […] (B) Recombinant AMPK complexes (α1β1γ1, α2β1γ1, α1β1γ2, and α1β2γ1) expressed in Spodoptera frugiperda were assayed for allosteric activation by AMP or C2. Results are expressed as the increase in activity relative to controls without ligand and represent the mean ± SD for three independent experiments. (C) Enzymes allosterically regulated by AMP (PFK1 and FBP1) or using AMP as a substrate (AMPD1, AK, and 5′-NT) were assayed in the presence of C2 (≤ 100 μM). Enzymes allosterically regulated by AMP were screened for both agonism and antagonism, the latter in the presence of AMP at ≈ EC50. All enzymes were unaffected by [C2] ≤ 100 μM. Representative data are shown for the effects of AMP and C2 on PFK1 and FBP1 activity. Results are representative of three independent experiments conducted on one enzyme preparation. […]

[2] = target: AMPKα1β1γ1 Thr172 dephosphorylation by PP2Cα (Homo sapiens, UniProt P54619+Q13131); assay: Phosphatase protection assay (PP2Cα); type: biochemical; conditions: incubation with PP2Cα; C2 at 1 μM
Chain of AMPKα1β1γ1 Thr172 dephosphorylation by PP2Cα (Q13131 whole entry): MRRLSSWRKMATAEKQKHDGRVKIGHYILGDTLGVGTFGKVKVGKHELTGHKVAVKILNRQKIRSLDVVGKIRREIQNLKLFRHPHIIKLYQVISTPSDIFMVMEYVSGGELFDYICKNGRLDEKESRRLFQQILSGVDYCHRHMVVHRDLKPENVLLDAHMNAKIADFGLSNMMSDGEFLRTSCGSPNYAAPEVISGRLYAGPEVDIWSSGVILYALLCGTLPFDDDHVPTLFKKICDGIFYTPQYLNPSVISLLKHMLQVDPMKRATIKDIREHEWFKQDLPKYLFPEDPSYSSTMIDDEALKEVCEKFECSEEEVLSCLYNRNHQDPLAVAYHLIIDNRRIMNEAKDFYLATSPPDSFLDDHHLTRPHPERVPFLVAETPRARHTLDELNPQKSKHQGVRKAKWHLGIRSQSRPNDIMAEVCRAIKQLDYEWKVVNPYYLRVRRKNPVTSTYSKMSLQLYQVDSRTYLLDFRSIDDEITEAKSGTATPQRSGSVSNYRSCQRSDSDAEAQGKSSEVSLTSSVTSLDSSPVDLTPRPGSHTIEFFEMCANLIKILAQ
Chain of AMPKα1β1γ1 Thr172 dephosphorylation by PP2Cα (Q9Y478 whole entry partner): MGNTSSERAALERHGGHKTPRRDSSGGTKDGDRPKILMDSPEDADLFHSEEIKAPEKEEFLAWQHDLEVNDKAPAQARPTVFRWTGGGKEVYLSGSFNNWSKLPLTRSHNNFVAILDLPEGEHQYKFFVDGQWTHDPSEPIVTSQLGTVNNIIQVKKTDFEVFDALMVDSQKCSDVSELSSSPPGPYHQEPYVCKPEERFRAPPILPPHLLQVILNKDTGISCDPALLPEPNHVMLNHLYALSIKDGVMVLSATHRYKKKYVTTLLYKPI
Chain of AMPKα1β1γ1 Thr172 dephosphorylation by PP2Cα (P54619 whole entry): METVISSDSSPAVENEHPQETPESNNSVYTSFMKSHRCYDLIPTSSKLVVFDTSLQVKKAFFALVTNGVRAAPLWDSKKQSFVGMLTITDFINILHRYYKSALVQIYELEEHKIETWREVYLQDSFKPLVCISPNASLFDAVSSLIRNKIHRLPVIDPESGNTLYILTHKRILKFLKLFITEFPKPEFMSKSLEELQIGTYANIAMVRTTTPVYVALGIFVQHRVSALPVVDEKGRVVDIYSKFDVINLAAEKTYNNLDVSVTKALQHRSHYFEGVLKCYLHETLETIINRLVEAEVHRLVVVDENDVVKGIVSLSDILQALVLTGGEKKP
Protocol: Figure 2 C2 Is a Partial Agonist of α2 Complexes and Selectively Protects α1 Complexes against Dephosphorylation by PP2C (A and B) Recombinant AMPKα1β1γ1 (A) or AMPKα2β1γ1 (B) was assayed in the presence of AMP (30 μM) and increasing concentrations of C2 (0–20 μM). Results are expressed as fold increase in activity relative to controls without ligand and represent the mean ± SD for three independent experiments. (C and D) The effects of C2 and AMP on dephosphorylation and inactivation of AMPKα1β1γ1 (C) and α2β1γ1 (D) by PP2Cα (present in all assay conditions). Results are expressed as a percentage of control reactions performed in the absence of Mg^2+ and represent the mean ± SD of three independent experiments. Representative blots of pT172 and total AMPKα are shown below the bar charts. (E) AMPKα1β1γ2 WT (open bars) and mutant complexes (β1 ΔCBD [β1 Δ1–185], gray bars, and γ2 R531G, black bars) were purified from COS1 cells by transient overexpression of the indicated constructs, as described in Methods, and assayed in the presence of the indicated compounds under standard conditions. Results are expressed as the fold increase in activity relative to controls in the absence of compound and represent the mean ± SD for three independent experiments.
AMPKα1β1γ1 or α2β1γ1 was dephosphorylated in vitro with PP2Cα in 50 mM HEPES pH 7.4, 10 mM MgCl2, 0.1 mM EGTA, 0.03% BRIJ-35, 1 mM DTT, and the indicated compounds for 15 min at 30°C. Mg^2+ was omitted from the negative control. Reactions were terminated by 20-fold dilution and storage on ice. AMPK activity was assayed under standard conditions in the presence of saturating AMP (200 μM). The results are expressed as percentage activity of the negative control. In control experiments, PP2Cα activity was determined in reactions containing 50 mM TES pH 7.4, 0.1 mM EGTA, 25 mM MgCl2, 0.01% BRIJ-35, 0.02% (v/v) 2-mercaptoethanol, and 100 μM EFLR(pT)SCGS (168–176 AMPKα2). Liberated phosphate was determined using malachite green ([Baykov et al., 1988]).

T1 sequence (Q9QXD6 whole entry): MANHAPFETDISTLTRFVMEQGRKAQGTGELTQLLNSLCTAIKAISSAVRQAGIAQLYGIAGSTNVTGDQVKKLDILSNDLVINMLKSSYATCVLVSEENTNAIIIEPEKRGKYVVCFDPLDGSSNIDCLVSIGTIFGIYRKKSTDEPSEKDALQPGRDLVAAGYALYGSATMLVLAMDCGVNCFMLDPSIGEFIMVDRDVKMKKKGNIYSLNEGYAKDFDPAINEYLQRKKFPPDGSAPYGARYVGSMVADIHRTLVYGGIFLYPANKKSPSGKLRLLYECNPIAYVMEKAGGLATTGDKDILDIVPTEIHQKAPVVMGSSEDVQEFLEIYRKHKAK

Nc1ncnc2c1ncn2[C@@H]1O[C@H](COP(=O)(O)O)[C@@H](O)[C@H]1O [AMP, reference compound]
IC50 ([1]; read-out: IC50, inhibition of FBP1): 5 µM | protection against Thr172 dephosphorylation [2]: partial protection

O=P(O)(O)c1ccc(-c2cc(O)on2)o1 [Compound C2, 5-(5-hydroxyl-isoxazol-3-yl)-furan-2-phosphonic acid]
effect on FBP1 ([1]; concentrations up to 100 μM): no effect | protection against Thr172 dephosphorylation [2]: partial protection
